The text below walks through data of patent US11014915B2, “Selective estrogen receptor degrader” (SUN PHARMA ADVANCED RESEARCH COMPANY LIMITED, priority 2019, dated 2021).

The structures appear in SMILES notation.

For orientation: AUC(0-t) means exposure summed from dosing to a finite time, without extrapolation to infinity. Usually Cmax stands for the peak of the concentration-time curve. One may read the Tmax as the time at which the peak concentration occurs. A word on the half-life: it is the time needed for the level to fall by half in the phase considered.

The nature of data set [1]: Pharmacokinetic study in female SD rats, single oral dose. It is filed as in vivo. The following applies: rat, 50 mg/kg p.o.; for AUC(0-t) / Cmax / Tmax / half-life / AUC(0-inf): female, SD, plasma, po; for AUC(0-inf): read-out: AUCinf_obs. The text has this: In drug discovery it is very important to have good oral bioavailability and pharmacokinetic (PK) profile of the compound in order to become a good drug candidate for oral administration. Many compounds having potent in vitro efficacy fail to show therapeutic efficacy in human body. The lack of therapeutic efficacy of these compounds is mainly due to their inappropriate pharmacokinetic properties, such as low bioavailability, short half-life, rapid metabolism, or rapid clearance resulting in a short duration of action. Therefore a good drug candidate should have not only good potency, but also a good pharmacokinetic profile. The pharmacokinetic profile of the compounds of Formula Ia and Ib were determined as per the procedure provided below.
PK profiles were evaluated in female SD rats (n=2) following a single oral dose administration. Rats were fasted for 12-13 hours prior to dosing and feed was provided 2 hours after oral treatments. Dose formulations of compounds were prepared in Tween 80 (0.4% v/v of the total volume of suspension) in 0.5% carboxymethyl cellulose (CMC). Treatments were given at 50 mg/kg, p.o. To evaluate the plasma concentration, 0.2 mL blood was drawn from the rats through the retro-orbital plexus at 0.25, 1, 4, 8, 24, 48 and 72 hour time points post-treatment in Eppendorf tubes containing sodium heparin as an anticoagulant (100 IU/mL), and centrifuged immediately at 8500 rpm for 7 min at 4° C. Plasma was separated and stored at −70° C., until analysis. The analysis of samples was performed as per the method given below:
Working Calibration Standard and Quality Control Standards Preparation:
Working calibration standards were prepared having 0.10, 0.20, 2.00, 4.00, 8.00, 12.00, 16.00, and 20.00 μg/mL concentrations. Quality control standards were prepared at concentrations of […].
Preparation of Working Internal Standards (WIS):
Accurately weighed 5 mg of Carbamazepine was transferred into a 100 mL volumetric flask, dissolved and diluted up to the mark with diluent (0.1% formic acid in water:acetonitrile 30:70 v/v). A WIS of 5 μg/mL was prepared from the above solution.
5 μL of working standards and quality controls were spiked into 95 μL of blank plasma. 25 μl from the above spiked standards and quality controls were aliquoted into microcentrifuge tubes. 25 μL of study samples were also aliquoted into a micro centrifuge tube. 5 μL of WIS was added in zero standards to linearity and study samples except blank. The samples were further vortexed for 10-15 seconds. 150 μL of Milli Q water was added to all prepared samples and vortexed for 10-15 seconds. Samples were loaded on a preconditioned cartridge (preconditioning was done with 1 mL methanol followed by 1 mL Milli Q water). Cartridges were washed with 2×1 mL of Milli Q water. Elution was done with a 1 mL elution solution {acetonitrile: 0.1% formic acid solution (70:30)} in HPLC vials.
Chromatographic separation was achieved on Chiral pack ID (250*4.6 mm, 5μ) with a flow rate of 1.25 mL/min with splitter and injection volume of 20 μL. The sample cooler was maintained at 10° C. The column oven temperature was set to 30° C. The mobile phase consisted of:
Mobile phase A: 1.47 g of ammonium bicarbonate into 1 L of water, 1 ml DEA, pH 9.2±0.1
Mobile phase B: methanol,
wherein mobile phase A was mixed with mobile phase B in the ratio of 30:70 v/v, respectively. The retention time of the compound of Formula Ia, compound of Formula Ib and the internal standard were about 8.7, 7.6 and 4.2 min, respectively. The overall chromatographic run time was 16 minutes.
Detection was performed by tandem mass spectrometry (TSQ Quantum, Discovery MAX, Thermo Electron Corporation) and peak areas were integrated using LCquan software version 2.9 QF1. […]

Data set [2] concerns the target T1, ER-α in MCF-7 cells harboring mutant ER (WT/Y537S) (Homo sapiens, UniProt P03372, Y537S).
T1 construct: MCF-7 cells harboring mutant ER (WT/D538G and WT/Y537S); endogenous in cells; host or cells: MCF-7 Y537S (WT/Y537S)
T1 sequence (P03372 1-595 Y537S): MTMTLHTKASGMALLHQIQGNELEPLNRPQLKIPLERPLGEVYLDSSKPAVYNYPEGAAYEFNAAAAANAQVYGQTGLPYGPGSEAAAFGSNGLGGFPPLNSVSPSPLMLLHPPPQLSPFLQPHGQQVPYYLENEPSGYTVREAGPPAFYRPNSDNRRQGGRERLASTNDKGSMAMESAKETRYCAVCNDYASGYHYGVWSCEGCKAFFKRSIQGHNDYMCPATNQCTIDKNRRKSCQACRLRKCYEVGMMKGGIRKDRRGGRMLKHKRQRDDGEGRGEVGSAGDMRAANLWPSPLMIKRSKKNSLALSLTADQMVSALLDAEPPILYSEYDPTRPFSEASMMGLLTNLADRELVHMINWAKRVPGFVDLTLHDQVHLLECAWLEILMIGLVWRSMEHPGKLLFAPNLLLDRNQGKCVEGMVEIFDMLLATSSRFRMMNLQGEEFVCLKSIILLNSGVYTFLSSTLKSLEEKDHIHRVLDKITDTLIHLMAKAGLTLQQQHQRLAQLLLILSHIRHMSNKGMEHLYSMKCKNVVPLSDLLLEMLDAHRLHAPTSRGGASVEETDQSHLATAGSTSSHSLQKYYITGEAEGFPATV
The data set is described as follows: ER-α degradation (SERD) assay, MCF-7 Y537S. The data set is classed as cell-based. The note with it: for DC50: MCF-7 Y537S, 4 days, read-out: ER-α degradation assay Y537S IC50. Here is the method:
Selective Estrogen Receptor Degradation (SERD) Assay:
The SERD activity for the test compounds was evaluated in MCF-7 cells harboring ER wild type, and MCF-7 cells harboring mutant ER (WT/D538G and WT/Y537S). Briefly, cells were plated in phenol red free RPMI1640 medium supplemented with 5% charcoal stripped fetal bovine serum. The seeding density was 40000 cells/well for MCF-7 WT and MCF-7 D538G and 50000 cells/well MCF-7 Y537S in a 48-well plate. Following overnight incubation, the cells were treated with varying concentrations of test compounds (final concentration: 1000 nM to 0.01 nM, 0.1% DMSO) for 4 days. The cells were lysed using PBS supplemented with 1 mM EDTA, 0.5% Triton X-100, 5 mM NaF, 6 M urea, and 1× Protease inhibitor cocktail. The lysate was analyzed for ER alpha protein using western blot. For the western blot, the cell lysate (12.5-40 μg total protein) was resolved on a 10% SDS PAGE and transferred onto a PVDF membrane. The blots were blocked using 5% skim milk powder in 0.1% PBS-T for 1 hour at room temperature, followed by co-incubation with rabbit anti-human β-actin antibody and rabbit anti-human ERα antibody for 2 hours at room temperature. The blots were subsequently probed with anti-rabbit IgG-HRP conjugate as secondary antibody for 1 hour at room temperature. The blots were developed by using West Pico Super Signal Chemiluminescence substrate and the bands were processed for densitometry analysis using Image Lab software (BioRad version 6.0.0). ERα band intensity was normalized to that housekeeping protein for respective samples. The % ER remaining was calculated by normalizing against the vehicle control (as 100%).

Take `CC1=C(c2cc(F)cc(F)c2)[C@@H](c2ccc(/C=C/CN3CC(CF)C3)cc2)Oc2cc(O)ccc21` [Formula Ib, (2R)-3-(3,5-difluorophenyl)-2-[4-[(E)-3-[3-(fluoromethyl)azetidin-1-yl]prop-1-enyl]phenyl]-4-methyl-2H-chromen-7-ol]: in data set [1], the area under the curve AUC(0-t) was 1800 ng·h/mL, the Cmax worked out at 119 ng/mL, the Tmax worked out at 4 h and the half-life is 10 h. Besides, the AUC(0-inf) in data set [1] is 2360 ng·h/mL. For the same molecule, the DC50 in data set [2] was > 1000 nM. In addition, the “ER-α degradation in mutated cell line (in words)” value in data set [2] (Y537S) is on record as “no ER-α degradation”.

As for `CC1=C(c2cc(F)cc(F)c2)[C@H](c2ccc(/C=C/CN3CC(CF)C3)cc2)Oc2cc(O)ccc21` [Formula Ia, (2S)-3-(3,5-difluorophenyl)-2-[4-[(E)-3-[3-(fluoromethyl)azetidin-1-yl]prop-1-enyl]phenyl]-4-methyl-2H-chromen-7-ol], in data set [1], the AUC(0-t) came to 7580 ng·h/mL, the highest level (Cmax) was 343 ng/mL, the Tmax came out at 4 h and the half-life is 26 h. Moreover, in data set [1], the AUC(0-inf) was 9800 ng·h/mL, the “AUClast of Formula Ia relative to Formula Ib” value is recorded as “about 4.2 fold” and the “Cmax of Formula Ia relative to Formula Ib” value was “about 2.9 fold”. Moreover, the DC50 in data set [2] came to 19.6 nM.
